Assay results reported in patent publication US8809369B2, “Tetrahydroquinoline derivatives” (Hoffmann-La Roche Inc., priority 2011, dated 2014).

Assays:
[1] = tested on: AMP-activated protein kinase (AMPK); assay: p-AMPK expression level in L6 cell line by Western blot; format: cell-based; settings: L6 cells, 2 hours compound treatment
Description: (§1) Evaluation of p-AMPK and p-ACC expression level in L6 cell line by Western-Blot
(§2) This method evaluates the changes of AMP-activated protein kinase (AMPK) and ACC (acetyl-CoA carboxylase) activity by small molecular modulators through detecting the level of p-AMPK and p-ACC proteins in L6 cells using Western blot.
(§3) L6 cells are maintained in DMEM medium supplemented with 10% FBS in 10-cm dishes. Prior to compounds treatment, L6 cells are seeded in 12-well-plates at concentration of 3×10^4 cells per well. After 24 hours of incubation in 12-well plates, L6 cells are differentiated by replacing the 10% FBS-DMEM medium with 2% FBS-DMEM. Differentiation usually takes 5 days, during which the culture medium is changed every 2 days.
(§4) The compound concentrations typically range from 32 μM to 0.5 μM with 2-fold dilution in 2 ml DMEM and 7 doses. The final DMSO concentration is 0.4%. Berberine is used as a positive control at concentration of 16 μM. Before compound treatment, starve L6 cells for 2 hours by replacing the medium with DMEM, and then gently aspirate the media from each well. Add the compounds into the plates and incubate at 37 degree 5% CO2 for 2 hours.
(§5) Prepare lysis buffer (RIPA buffer with protease-inhibitors and phosphorate-inhibitors) and place it on ice. After two hour's compound treatment, aspirate the medium from 12-well plates, add 70 ul lysis buffer to each well and keep the plates on ice for 5 min. Then scrape the cell lysate off the plates and transfer it to 1.5 ml eppendorf tubes. Keep the tube on ice for more 10 min, centrifugate the lysate at 13000 rpm, 4 degrees for 15 min and transfer the supernatant to clean tubes.
(§6) Determine protein concentration for each sample using Quickstart Bradford protein quantitation kit. Mix 20 ug protein sample with 4 times loading buffer, heat them at 100° C. for 5 min, store the sample in −80° C. or perform Western blot assay directly. For Western blot assay, load 20 ug samples and 10 ul Pre-stained Protein Maker into 4-12% SDS-PAGE gradient gel. Run the samples at 100 V in the stacking gel and at 120 V in resolving gel until the Bromophenol dye reaches the bottom. Transfer the electrophoresed proteins to a PVDF membrane using Bio-Rad's Transblot for 120 min at 300 mA. Following the completion of transfer, the membrane is blocked with 5% non-fat milk for 2 hours at room temperature before incubated with primary antibody (p-AMPK and p-ACC) at 4° C. overnight. On the next day wash the membrane twice with TBST, add secondary antibody and incubate for 1 hour at room temperature. Wash the membrane twice with TBST. Develop p-AMPK and p-ACC protein expression level on the film in dark room with Amersham ECL plus kit. The bands of each sample are quantitated by Bio-Rad system, The AC1.3 value is analyzed using Prism 5.0.

[2] = tested on: ACC (acetyl-CoA carboxylase); assay: p-ACC expression level in L6 cell line by Western blot; format: cell-based; settings: Rattus norvegicus, L6 cells, 2 hours compound treatment, read-out: Activity AC1.3 (ACCp)
Description: as §1, §2, §3, §4, §5, §6

Row | Structure (SMILES) | Activity AC1.3 (AMPKp) [1] | EC (1.3-fold) [2]
1 | CC1(C)CC(c2cc(F)cc(N3CCOCC3)c2)Nc2ccc(C(=O)NS(C)(=O)=O)cc21 (stereo not drawn) [Example 4, N-[2-(3-fluoro-5-morpholin-4-yl-phenyl)-4,4-dimethyl-1,2,3,4-tetrahydro-quinoline-6-carbonyl]-methanesulfonamide] | 6.76 µM | 6.23 µM
2 | CC1(C)CC(c2cccc(N3CCOCC3)c2)Nc2ccc(S(=O)(=O)N3CCOCC3)cc21 (stereo not drawn) [Example 12, 4,4-Dimethyl-6-(morpholine-4-sulfonyl)-2-(3-morpholin-4-yl-phenyl)-1,2,3,4-tetrahydro-quinoline] | 5.70 µM | 1.86 µM
3 | CC1(C)CC(c2cccc(N3CCOCC3)c2)Nc2ccc(S(=O)(=O)NC3CCC3)cc21 (stereo not drawn) [Example 15, 4,4-Dimethyl-2-(3-morpholin-4-yl-phenyl)-1,2,3,4-tetrahydro-quinoline-6-sulfonic acid cyclobutylamide] | 0.1 µM | 0.1 µM
4 | CC1(C)CC(c2cc(F)cc(N3CCOCC3)c2)Nc2ccc(S(=O)(=O)NC3CCC3)cc21 (stereo not drawn) [Example 16, 2-(3-Fluoro-5-morpholin-4-yl-phenyl)-4,4-dimethyl-1,2,3,4-tetrahydro-quinoline-6-sulfonic acid cyclobutylamide] | 19.4 µM | 3.21 µM
5 | CC1(C)CC(c2cccc(-c3ccccc3O)c2)Nc2ccc(S(=O)(=O)NC3CCC3)cc21 (stereo not drawn) [Example 17, 2-(2′-Hydroxy-biphenyl-3-yl)-4,4-dimethyl-1,2,3,4-tetrahydro-quinoline-6-sulfonic acid cyclobutylamide] | 0.41 µM | 0.05 µM
6 | CC1(C)CC(c2cccnc2)Nc2ccc(C(=O)NS(C)(=O)=O)cc21 (stereo not drawn) [Example 18, N-(4,4-dimethyl-2-pyridin-3-yl-1,2,3,4-tetrahydro-quinoline-6-carbonyl)-methanesulfonamide] | 7.98 µM | 20 µM
7 | Cc1ccc(N2CCOCC2)cc1C1CC(C)(C)c2cc(C(=O)NS(C)(=O)=O)ccc2N1 (stereo not drawn) [Example 22, N-[4,4-dimethyl-2-(2-methyl-5-morpholin-4-yl-phenyl)-1,2,3,4-tetrahydro-quinoline-6-carbonyl]-methanesulfonamide] | 0.02 µM | 0.16 µM
8 | CC(C)(C)c1ccc(-c2cccc(C3CC(C)(C)c4cc(C(=O)NS(=O)(=O)C5CC5)ccc4N3)c2)cc1 (stereo not drawn) [Example 40, Cyclopropanesulfonic acid [2-(4′-tert-butyl-biphenyl-3-yl)-4,4-dimethyl-1,2,3,4-tetrahydro-quinoline-6-carbonyl]-amide] | 6.6 µM | 6.17 µM
9 | Cc1ccc(N2CCN(c3cncc(C4CC(C)(C)c5cc(C(=O)NS(C)(=O)=O)ccc5N4)c3)CC2)c(C)c1 (stereo not drawn) [Example 49, N-(2-{5-[4-(2,4-dimethyl-phenyl)-piperazin-1-yl]-pyridin-3-yl}-4,4-dimethyl-1,2,3,4-tetrahydro-quinoline-6-carbonyl)-methanesulfonamide] | 0.15 µM | 6.93 µM
10 | Cc1ccc(N2CCN(c3cccc(C4CC(C)(C)c5cc(C(=O)NS(C)(=O)=O)ccc5N4)c3)CC2)c(C)c1 (stereo not drawn) [Example 53, N-(2-{3-[4-(2,4-dimethyl-phenyl)-piperazin-1-yl]-phenyl}-4,4-dimethyl-1,2,3,4-tetrahydro-quinoline-6-carbonyl)-methanesulfonamide] | 4.79 µM | 11.7 µM
11 | Cc1ccccc1N1CCN(c2cccc(C3CC(C)(C)c4cc(F)cc(C(=O)NS(C)(=O)=O)c4N3)c2)CC1 (stereo not drawn) [Example 57, N-{6-fluoro-4,4-dimethyl-2-[3-(4-o-tolyl-piperazin-1-yl)-phenyl]-1,2,3,4-tetrahydro-quinoline-8-carbonyl}-methanesulfonamide] | 0.85 µM | 0.61 µM
12 | Cc1ccccc1N1CCN(c2cccc(C3CC(C)(C)c4cc(F)cc(C(=O)NS(=O)(=O)C5CC5)c4N3)c2)CC1 (stereo not drawn) [Example 58, Cyclopropanesulfonic acid {6-fluoro-4,4-dimethyl-2-[3-(4-o-tolyl-piperazin-1-yl)-phenyl]-1,2,3,4-tetrahydro-quinoline-8-carbonyl}-amide] | 0.46 µM | 0.36 µM
13 | CC1(C)CC(c2cccc(N3CCN(c4ccccc4F)CC3)c2)Nc2c(C(=O)NS(C)(=O)=O)cc(F)cc21 (stereo not drawn) [Example 59, N-(6-fluoro-2-{3-[4-(2-fluoro-phenyl)-piperazin-1-yl]-phenyl}-4,4-dimethyl-1,2,3,4-tetrahydro-quinoline-8-carbonyl)-methanesulfonamide] | 7.73 µM | 0.74 µM
14 | CC1(C)CC(c2cccc(N3CCCC3)c2)Nc2c(C(=O)NS(=O)(=O)C3CC3)cc(Cl)cc21 (stereo not drawn) [Example 72, Cyclopropanesulfonic acid [6-chloro-4,4-dimethyl-2-(3-pyrrolidin-1-yl-phenyl)-1,2,3,4-tetrahydro-quinoline-8-carbonyl]-amide] | 0.14 µM | 3.49 µM
15 | CC(C)(C)c1ccc(-c2cncc(C3CC(C)(C)c4cc(C(=O)NS(=O)(=O)C5CC5)ccc4N3)c2)cc1 (stereo not drawn) [Example 74, Cyclopropanesulfonic acid {2-[5-(4-tert-butyl-phenyl)-pyridin-3-yl]-4,4-dimethyl-1,2,3,4-tetrahydro-quinoline-6-carbonyl}-amide] | 0.06 µM | 1.67 µM
16 | CN(C(=O)c1ccc2c(c1)C(C)(C)CC(c1cccc(N3CCOCC3)c1)N2)S(=O)(=O)C1CC1 (stereo not drawn) [Example 75, Cyclopropanesulfonic acid [4,4-dimethyl-2-(3-morpholin-4-yl-phenyl)-1,2,3,4-tetrahydro-quinoline-6-carbonyl]-methyl-amide] |  | 0.3 µM
17 | CC1(C)CC(c2cccc(N3CCN(c4ccccc4)CC3)c2)Nc2c(C(=O)NS(=O)(=O)C3CC3)cccc21 (stereo not drawn) [Example 76, Cyclopropanesulfonic acid {4,4-dimethyl-2-[3-(4-phenyl-piperazin-1-yl)-phenyl]-1,2,3,4-tetrahydro-quinoline-8-carbonyl}-amide] | 3.12 µM | 0.57 µM
